23 molecules from patent US11987588B2, “Modulators of the beta-3 adrenergic receptor useful for the treatment or prevention of heart failure and disorders related thereto” (Arena Pharmaceuticals, Inc., priority 2017, dated 2024) can be followed below.

Structures are written as SMILES.

In the assay the target is Beta-3 Adrenergic Receptor (Homo sapiens (Human), UniProt P13945). As to the kind of experiment: Homogeneous Time-Resolved Fluorescence (HTRF) cAMP antagonist assay, IC50 determination. It counts as cell-based. To be noted: CHO-K1 cells stably expressing recombinant receptor, isoproterenol at EC90. As to the method: HTRF cAMP assays were performed according to manufacturer's instructions (Cisbio, cAMP Dynamic 2 Assay Kit; #62AM4PEJ). CHO-K1 cells stably expressing recombinant receptor were harvested and suspended in warm PBS to make a 300,000 cells/mL stock. This cell suspension was dispensed into 384 well assay plates (PerkinElmer ProxiPlate #6008280) at 5 μL per well (1500 cells/well) along with a cAMP standard curve.
Sequence of Beta-3 Adrenergic Receptor (P13945 whole entry, species assumed): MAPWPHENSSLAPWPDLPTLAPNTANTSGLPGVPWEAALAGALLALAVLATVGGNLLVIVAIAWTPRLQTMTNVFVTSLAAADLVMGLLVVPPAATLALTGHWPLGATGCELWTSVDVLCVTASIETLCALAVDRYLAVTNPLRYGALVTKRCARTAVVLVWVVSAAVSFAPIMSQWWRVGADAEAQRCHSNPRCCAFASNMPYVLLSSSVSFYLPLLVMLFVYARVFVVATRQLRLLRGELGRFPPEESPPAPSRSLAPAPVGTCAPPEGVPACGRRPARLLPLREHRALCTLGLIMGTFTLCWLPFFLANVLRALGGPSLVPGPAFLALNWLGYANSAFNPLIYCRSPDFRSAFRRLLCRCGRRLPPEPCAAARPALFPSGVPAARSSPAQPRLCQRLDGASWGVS
Compounds were dissolved and serially diluted (5-fold) in DMSO to generate a 10-point dose response stock. The stock was then diluted 100-fold in assay buffer (PBS containing 1 mM IBMX) before a volume of 2.5 μL was added to the cells (the final, top concentration of compound in the dose-response is typically 10 or 100 μM). After a brief incubation, 2.5 μL of isoproterenol stock, prepared at a concentration 4 times its EC90 at the receptor of interest, was added to the wells. The EC90 for isoproterenol, a beta-adrenergic agonist, was determined in separate experiments using standard methods to measure agonist potencies.
Following a 1-hour incubation at room temperature, 5 μL of cAMP-D2 Reagent diluted in Lysis Buffer was added to each well followed by 5 μL of Cryptate Reagent. Plates were further incubated at room temperature for 1 hour prior to reading. Time resolved fluorescence measurements were collected on a suitable, HTRF-capable plate reader.
Counts from the plate reader were fit to the cAMP standard curve on the assay plate in order to determine cAMP concentrations in each well, and these values were used to construct dose-response curves to obtain IC50 values.

`Cc1ccc(F)c(S(=O)(=O)N2CCC3(CC2)CC(NC[C@H](O)COc2cccc(S(=O)(=O)NCCCN(C)C)c2)CO3)c1` (stereo partly drawn) [Compound 309, N-(3-(dimethylamino)propyl)-3-((2S)-3-(8-(2-fluoro-5-methylphenylsulfonyl)-1-oxa-8-azaspiro[4.5]decan-3-ylamino)-2-hydroxypropoxy)benzenesulfonamide]: the IC50 worked out at 3000 nM. With `CNS(=O)(=O)c1cccc(OC[C@@H](O)CNC2COC3(CCN(S(=O)(=O)c4ccccc4Cl)CC3)C2)c1` (stereo partly drawn) [Compound 35, 3-((2S)-3-(8-(2-chlorophenylsulfonyl)-1-oxa-8-azaspiro[4.5]decan-3-ylamino)-2-hydroxypropoxy)-N-methylbenzenesulfonamide], the 50% inhibitory concentration (IC50) stood at 18.9 nM.

`CNS(=O)(=O)c1cccc(OC[C@@H](O)CNC2COC3(CCN(S(=O)(=O)c4ccc(F)cc4F)CC3)C2)c1` (stereo partly drawn) [Compound 134, 3-((2S)-3-(8-(2,4-difluorophenylsulfonyl)-1-oxa-8-azaspiro[4.5]decan-3-ylamino)-2-hydroxypropoxy)-N-methylbenzenesulfonamide]: the half-maximal inhibitory concentration (IC50) worked out at 37.9 nM. Next, `CNS(=O)(=O)c1cccc(OC[C@@H](O)CNC2COC3(CCN(S(=O)(=O)c4cccc(-c5ccc(CC#N)cc5)c4)CC3)C2)c1` (stereo partly drawn) [Compound 117, 3-((2S)-3-(8-(4′-(cyanomethyl)biphenyl-3-ylsulfonyl)-1-oxa-8-azaspiro[4.5]decan-3-ylamino)-2-hydroxypropoxy)-N-methylbenzenesulfonamide]: 14.5 nM. With `CNS(=O)(=O)c1cccc(OC[C@@H](O)CNC2COC3(CCN(S(=O)(=O)c4cccc(-c5ccc(CNCC#N)cc5)c4)CC3)C2)c1` (stereo partly drawn) [Compound 338, 3-((2S)-3-(8-(4′-((cyanomethylamino)methyl)biphenyl-3-ylsulfonyl)-1-oxa-8-azaspiro[4.5]decan-3-ylamino)-2-hydroxypropoxy)-N-methylbenzenesulfonamide] the figure was 47.1 nM. Next, `CNS(=O)(=O)c1cccc(OC[C@@H](O)CNC2COC3(CCN(S(=O)(=O)c4cccc(-c5cscc5C)c4)CC3)C2)c1` (stereo partly drawn) [Compound 109, 3-((2S)-2-hydroxy-3-(8-(3-(4-methylthiophen-3-yl)phenylsulfonyl)-1-oxa-8-azaspiro[4.5]decan-3-ylamino)propoxy)-N-methylbenzenesulfonamide]: 13.7 nM; `CNS(=O)(=O)c1cccc(OC[C@@H](O)CN[C@@H]2COC3(CCN(S(=O)(=O)c4cccc(-c5ccc(CC#N)cc5)c4)CC3)C2)c1` [Compound 293, 3-((S)-3-((S)-8-(4′-(cyanomethyl)biphenyl-3-ylsulfonyl)-1-oxa-8-azaspiro[4.5]decan-3-ylamino)-2-hydroxypropoxy)-N-methylbenzenesulfonamide]: 16.2 nM.

For `COCCNS(=O)(=O)c1cccc(OC[C@@H](O)CN[C@H]2COC3(CCN(S(=O)(=O)c4cnc5cc[nH]c5c4)CC3)C2)c1` [Compound 530, 3-((S)-3-((R)-8-(1H-pyrrolo[3,2-b]pyridin-6-ylsulfonyl)-1-oxa-8-azaspiro[4.5]decan-3-ylamino)-2-hydroxypropoxy)-N-(2-methoxyethyl)benzenesulfonamide], the IC50 was 214 nM. For the molecule `CNS(=O)(=O)c1cccc(OC[C@@H](O)CNC2COC3(CCN(S(=O)(=O)c4cc(-c5ccc(CN)cc5)cc5c4OCC5)CC3)C2)c1` (stereo partly drawn) [Compound 358, 3-((2S)-3-(8-(5-(4-(aminomethyl)phenyl)-2,3-dihydrobenzofuran-7-ylsulfonyl)-1-oxa-8-azaspiro[4.5]decan-3-ylamino)-2-hydroxypropoxy)-N-methylbenzenesulfonamide], the IC50 was 16.1 nM. Next, `CCn1cc(S(=O)(=O)N2CCC3(CC2)C[C@@H](NC[C@H](O)COc2cccc(S(=O)(=O)NC)c2)CO3)c(=O)c2cc(F)ccc21` [Compound 536, 3-((S)-3-((R)-8-(1-ethyl-6-fluoro-4-oxo-1,4-dihydroquinolin-3-ylsulfonyl)-1-oxa-8-azaspiro[4.5]decan-3-ylamino)-2-hydroxypropoxy)-N-methylbenzenesulfonamide]: 166 nM. Consider `CNS(=O)(=O)c1cccc(OC[C@@H](O)CNC2COC3(CCN(S(=O)(=O)c4cccc(-c5ccc(CNCCF)cc5)c4)CC3)C2)c1` (stereo partly drawn) [Compound 347, 3-((2S)-3-(8-(4′-((2-fluoroethylamino)methyl)biphenyl-3-ylsulfonyl)-1-oxa-8-azaspiro[4.5]decan-3-ylamino)-2-hydroxypropoxy)-N-methylbenzenesulfonamide], for which the IC50 stood at 33.5 nM. For `CNS(=O)(=O)c1cccc(OC[C@@H](O)CN[C@H]2COC3(CCN(S(=O)(=O)c4ccc(-c5ccc(CN(C)C)cc5)cc4)CC3)C2)c1` [Compound 405, 3-((S)-3-((R)-8-(4′-((dimethylamino)methyl)biphenyl-4-ylsulfonyl)-1-oxa-8-azaspiro[4.5]decan-3-ylamino)-2-hydroxypropoxy)-N-methylbenzenesulfonamide], the IC50 stood at 51.8 nM. Turning to `CNS(=O)(=O)c1cccc(OC[C@@H](O)CNC2COC3(CCN(S(=O)(=O)c4ccc(-c5cc(C(F)(F)F)on5)s4)CC3)C2)c1` (stereo partly drawn) [Compound 208, 3-((2S)-2-hydroxy-3-(8-(5-(5-(trifluoromethyl)isoxazol-3-yl)thiophen-2-ylsulfonyl)-1-oxa-8-azaspiro[4.5]decan-3-ylamino)propoxy)-N-methylbenzenesulfonamide], the half-maximal inhibitory concentration (IC50) is 64.6 nM.

Regarding `CNS(=O)(=O)c1cccc(OC[C@@H](O)CNC2COC3(CCN(S(=O)(=O)c4cccc(-c5ccc(NS(C)(=O)=O)cc5)c4)CC3)C2)c1` (stereo partly drawn) [Compound 86, 3-((2S)-2-hydroxy-3-(8-(4′-(methylsulfonamido)biphenyl-3-ylsulfonyl)-1-oxa-8-azaspiro[4.5]decan-3-ylamino)propoxy)-N-methylbenzenesulfonamide], the IC50 stood at 9.36 nM. With `CNS(=O)(=O)c1cccc(OC[C@@H](O)CNC2COC3(CCN(S(=O)(=O)c4ccc5[nH]c(=O)sc5c4)CC3)C2)c1` (stereo partly drawn) [Compound 58, 3-((2S)-2-hydroxy-3-(8-(2-oxo-2,3-dihydrobenzo[d]thiazol-6-ylsulfonyl)-1-oxa-8-azaspiro[4.5]decan-3-ylamino)propoxy)-N-methylbenzenesulfonamide] the figure was 43 nM. On to `CNS(=O)(=O)c1cccc(OC[C@@H](O)CNC2COC3(CCN(S(=O)(=O)c4ccc(NCCO)nc4)CC3)C2)c1` (stereo partly drawn) [Compound 428, 3-((2S)-2-hydroxy-3-(8-(6-(2-hydroxyethylamino)pyridin-3-ylsulfonyl)-1-oxa-8-azaspiro[4.5]decan-3-ylamino)propoxy)-N-methylbenzenesulfonamide], for which the IC50 came to 61.5 nM. Next, `CNS(=O)(=O)c1cccc(OC[C@@H](O)CNC2COC3(CCN(S(=O)(=O)c4cccc(-c5cccc(COC)c5)c4)CC3)C2)c1` (stereo partly drawn) [Compound 65, 3-((2S)-2-hydroxy-3-(8-(3′-(methoxymethyl)biphenyl-3-ylsulfonyl)-1-oxa-8-azaspiro[4.5]decan-3-ylamino)propoxy)-N-methylbenzenesulfonamide]: 85.6 nM; `COCCNS(=O)(=O)c1cccc(OC[C@@H](O)CNC2COC3(CCN(S(=O)(=O)c4ccc5ccccc5c4)CC3)C2)c1` (stereo partly drawn) [Compound 13, 3-((2S)-2-hydroxy-3-(8-(naphthalen-2-ylsulfonyl)-1-oxa-8-azaspiro[4.5]decan-3-ylamino)propoxy)-N-(2-methoxyethyl)benzenesulfonamide]: 28.7 nM; `CNCc1ccc(-c2cccc(S(=O)(=O)N3CCC4(CC3)CC(NC[C@H](O)COc3cccc(S(=O)(=O)NC)c3)CO4)c2)cc1` (stereo partly drawn) [Compound 301, 3-((2S)-2-hydroxy-3-(8-(4′-((methylamino)methyl)biphenyl-3-ylsulfonyl)-1-oxa-8-azaspiro[4.5]decan-3-ylamino)propoxy)-N-methylbenzenesulfonamide]: 31.6 nM.

Consider `CCC(C)NS(=O)(=O)c1cccc(OC[C@@H](O)CNC2COC3(CCN(S(=O)(=O)c4ccc5ccccc5c4)CC3)C2)c1` (stereo partly drawn) [Compound 10, N-sec-butyl-3-((2S)-2-hydroxy-3-(8-(naphthalen-2-ylsulfonyl)-1-oxa-8-azaspiro[4.5]decan-3-ylamino)propoxy)benzenesulfonamide], for which the IC50 was found to be 49.2 nM. Next, `CNS(=O)(=O)c1cccc(OC[C@@H](O)CNC2COC3(CCN(S(=O)(=O)c4ccc(-c5ccc(F)cc5)cc4)CC3)C2)c1` (stereo partly drawn) [Compound 122, 3-((2S)-3-(8-(4′-fluorobiphenyl-4-ylsulfonyl)-1-oxa-8-azaspiro[4.5]decan-3-ylamino)-2-hydroxypropoxy)-N-methylbenzenesulfonamide]: 34.1 nM; `CNS(=O)(=O)c1cccc(OC[C@@H](O)CNC2COC3(CCN(S(=O)(=O)c4ccsc4)CC3)C2)c1` (stereo partly drawn) [Compound 196, 3-((2S)-2-hydroxy-3-(8-(thiophen-3-ylsulfonyl)-1-oxa-8-azaspiro[4.5]decan-3-ylamino)propoxy)-N-methylbenzenesulfonamide]: 39.7 nM; `CNS(=O)(=O)c1cccc(OC[C@@H](O)CNC2COC3(CCN(S(=O)(=O)c4ccc5cc(Cl)ccc5c4)CC3)C2)c1` (stereo partly drawn) [Compound 264, 3-((2S)-3-(8-(6-chloronaphthalen-2-ylsulfonyl)-1-oxa-8-azaspiro[4.5]decan-3-ylamino)-2-hydroxypropoxy)-N-methylbenzenesulfonamide]: 39 nM.
